Source: patent publication US7563570B2, “Method of determining a chemotherapeutic regimen for non small cell lung cancer based on BRCA1 expression” (Pangaea Biotech, priority 2004, dated 2009)

Columns and labels:
breast cancer cell line = conditions: BRCA1 mRNA determined by RT-QPCR; cited from earlier work
[1] = system: HCC1937 breast cancer cell line; conditions: HCC1937, BRCA1 reconstituted vs BRCA1-negative; cited from earlier work
[2] = system: SKOV-3 human ovarian cancer cell line; conditions: cited from earlier work
[3] = system: Mouse models carrying conditional disruption of BRCA1; conditions: cited from earlier work
[4] = system: non-small-cell lung cancer (NSCLC) patients; assay: Neoadjuvant gemcitabine/cisplatin followed by surgery in stage IIB, IIIA and IIIB NSCLC patients, outcome by quartile of tumor BRCA1 mRNA expression; format: in vivo, human
Description: In all patients, neoadjuvant chemotherapy was indicated after evaluation by a thoracic surgeon, a radiologist, a medical oncologist, and a radiation oncologist. Patients received three cycles of neoadjuvant chemotherapy; 51 received cisplatin 100 mg/m^2 day 1 plus gemcitabine 1250 mg/m^2 days 1 and 8 every 21 days, and four received carboplatin AUC=5 day 1 plus gemcitabine 1000 mg/m^2 days 1 and 8 every 21 days. A thoracotomy was performed within four to five weeks after the last chemotherapy cycle; the surgical procedure was based on the extent of tumor at the time of the initial presentation.
We examined BRCA1 gene expression in formalin-fixed, paraffin-embedded surgical resected specimens from the 55 patients as previously described: Specht K, et al. (2001) Am. J. Pathol., 158, 419-429: “Quantitative gene expression analysis in microdissected archival formalin-fixed and paraffin-embedded tumor tissue”; Krafft A E, et al. (1997) Mol. Diagn., 3, 217-230: “Optimization of the isolation and amplification of RNA from formalin fixed, paraffin-embedded tissue: The Armed Forces Institute of Pathology experience and literature review”. After standard tissue sample deparaffinization using xylene and alcohols, samples were lysed in a tris-chloride, EDTA, sodium dodecyl sulphate (SDS) and proteinase K containing buffer. RNA was then extracted with phenol-chloroform-isoamyl alcohol followed by precipitation with isopropanol in the presence of glycogen and sodium acetate. RNA was resuspended in RNA storage solution (Ambion Inc; Austin Tex., USA) and treated with DNAse I to avoid DNA contamination. cDNA was synthesized using M-MLV retrotranscriptase enzyme. Template cDNA was added to Taqman Universal Master Mix (AB; Applied Biosystems, Foster City, Calif., USA) in a 12.5-μl reaction with specific primers and probe for each gene. The primer and probe sets were designed using Primer Express 2.0 Software (AB). Quantification of gene expression was performed using the ABI Prism 7900HT Sequence Detection System (AB). Primers and probe for BRCA1 mRNA expression analysis were designed according to the Ref Seq NM_007294 (www.ncbi.nlm.nih.gov/LocusLink). Forward primer is located in exon 8 (position 4292 bp to 4317 bp), reverse primer in exon 9 (position 4336 bp to 4360 bp), and probe in the exon 8/9 junction (position 4313 bp to 4333 bp). The PCR product size generated with these primers was 69 bp. The primers and 5′ labeled fluorescent reporter dye (6FAM) probe were as follows: β-actin: forward 5′ TGA GCG CGG CTA CAG CTT 3′, reverse 5′ TCCTTAATGTCACGCACGATTT 3′, probe 5′ ACC ACC ACG GCC GAG CGG 3′; BRCA1: forward 5′GGCTATCCTCTCAGAGTGACATTTTA 3′, reverse 5′ GCTTTATCAGGTTATGTTGCATGGT 3′, probe 5′ CCA CTC AGC AGA GGG 3′.
Relative gene expression quantification was calculated according to the comparative Ct method using β-actin as an endogenous control and commercial RNA controls (Stratagene, La Jolla, Calif.) as calibrators. Final results, were determined as follows: 2^−(ΔCt sample−ΔCt calibrator), where ΔCT values of the calibrator and sample are determined by subtracting the CT value of the target gene from the value of the β-actin gene. In all experiments, only triplicates with a standard deviation (SD) of the Ct value <0.20 were accepted. In addition, for each sample analyzed, a retrotranscriptase minus control was run in the same plate to assure lack of genomic DNA contamination (FIG. 1).
In order to provide an easily interpretable evaluation of the effect of BRCA1 mRNA expression, gene expression values were divided into quartiles. Interpatient variation coefficients were calculated to assess similarities between quartiles. Hazard ratios were calculated with the univariate Cox model, and comparison between Kaplan-Meier survival curves was performed with the log-rank test. […]

[5] = bottom quartile of BRCA1 levels
[6] = bottom quartile of BRCA1 levels, listed as Gemcitabine/Cisplatin
[7] = middle quartiles of BRCA1 levels
[8] = middle quartiles of BRCA1 levels, listed as Gemcitabine/Cisplatin
[9] = top quartile of BRCA1 levels, listed as Gemcitabine/Cisplatin

COc1cc([C@@H]2c3cc4c(cc3[C@@H](O[C@@H]3O[C@@H]5CO[C@@H](C)O[C@H]5[C@H](O)[C@H]3O)[C@H]3COC(=O)[C@H]23)OCO4)cc(OC)c1O [etoposide]
Change of drug sensitivity on decreased BRCA1 mRNA expression (breast cancer cell line): greater sensitivity

N.N.[Cl][Pt][Cl] [cisplatin, cis-diaminodichloroplatinum]
Increase in resistance on reconstitution of wild-type BRCA1 [1]: 20 fold | Change of drug sensitivity on decreased BRCA1 mRNA expression (breast cancer cell line): greater sensitivity | Change of drug resistance on upregulation of BRCA1 expression [2]: increased cisplatin resistance

CC[C@]1(O)C[C@H]2CN(CCc3c([nH]c4ccccc34)[C@@](C(=O)OC)(c3cc4c(cc3OC)N(C=O)[C@H]3[C@@](O)(C(=O)OC)[C@H](OC(C)=O)[C@]5(CC)C=CCN6CC[C@]43[C@@H]65)C2)C1 [vincristine]
Change of drug sensitivity on decreased BRCA1 mRNA expression (breast cancer cell line): greater resistance

CC(=O)O[C@H]1C(=O)[C@@]2(C)[C@H]([C@H](OC(=O)c3ccccc3)[C@]3(O)C[C@H](OC(=O)[C@H](O)[C@@H](NC(=O)c4ccccc4)c4ccccc4)C(C)=C1C3(C)C)[C@]1(OC(C)=O)CO[C@@H]1C[C@@H]2O [paclitaxel]
Change of drug sensitivity on decreased BRCA1 mRNA expression (breast cancer cell line): greater resistance

CC/C(=C(\c1ccccc1)c1ccc(OCCN(C)C)cc1)c1ccccc1 [tamoxifen]
Sensitivity of BRCA1-disrupted mouse models [3]: resistant

gemcitabine/cisplatin
Patients who attained a complete pathologic response (T0N0) ([4]; all in the bottom quartile of BRCA1 levels): Five | Median survival ([4]; all patients): 37.8 months | Risk of death, hazard ratio ([4]; bottom quartile compared to top quartile, unstratified): 0.187 | Radiographic Response: Partial Response [4, 5]: 66.7% | Radiographic Response: Stable Disease [4, 5]: (33.3) % | Surgical Results: Complete Resection [4, 5]: 93.3% | Radiographic Response: Progressive Disease ([4]; bottom quartile of BRCA1 levels, number of patients): 0 N | Radiographic Response: Partial Response [4, 6]: (66.7) % | Surgical Results: Complete Resection [4, 6]: (93.3) % | Median survival ([4]; bottom quartile of BRCA1 mRNA levels (0.28-0.61), 15 patients): not reached | Radiographic Response: Partial Response [4, 7]: 57.1% | Radiographic Response: Progressive Disease [4, 7]: (7.1) % | Radiographic Response: Stable Disease [4, 7]: (35.7) % | Surgical Results: Complete Resection [4, 7]: 78.6% | Radiographic Response: Partial Response [4, 8]: (57.1) % | Surgical Results: Complete Resection [4, 8]: (78.6) % | Median survival ([4]; patients who underwent lobectomy): 51.9 months | Median survival ([4]; patients who underwent pneumonectomy): 25.8 months | Risk of death, hazard ratio ([4]; stratified by clinical stage, bottom quartile compared to top quartile): 0.220 | Risk of death, hazard ratio ([4]; stratified by clinical stage, two middle quartiles compared to top quartile): 0.430 | Risk of death, hazard ratio ([4]; stratified by pathologic stage, bottom quartile compared to top quartile): 0.206 | Risk of death, hazard ratio ([4]; stratified by pathologic stage, two middle quartiles compared to top quartile): 0.294 | Radiographic Response: Partial Response ([4]; top quartile of BRCA1 levels): 58.3% | Radiographic Response: Progressive Disease ([4]; top quartile of BRCA1 levels): (8.3) % | Radiographic Response: Stable Disease ([4]; top quartile of BRCA1 levels): (33.3) % | Surgical Results: Complete Resection ([4]; top quartile of BRCA1 levels): 83.3% | Radiographic Response: Partial Response [4, 9]: (58.3) % | Surgical Results: Complete Resection [4, 9]: (83.3) % | Median survival ([4]; top quartile of BRCA1 mRNA levels (2.45-10.43), 12 patients): 12.7 months | Risk of death, hazard ratio ([4]; two middle quartiles compared to top quartile, unstratified): 0.382 | Median survival ([4]; two middle quartiles of BRCA1 mRNA levels (0.65-2.37), 28 patients): 37.8 months

COc1cccc2c1C(=O)c1c(O)c3c(c(O)c1C2=O)C[C@@](O)(C(=O)CO)C[C@@H]3O[C@H]1C[C@H](N)[C@H](O)[C@H](C)O1 [doxorubicin]
Sensitivity of BRCA1-disrupted mouse models [3]: highly sensitive
